Measured values published in article PMC12196455, “Effect of Tegoprazan on Tacrolimus and Mycophenolate Levels in Kidney Transplant Recipients: A Randomized Controlled Study Using a Smart Trial Platform” (Pharmaceuticals, 2025).

Experiments:
[1] = design: method as in PMID 34246485; conditions: result in words; cited from earlier work
[2] = Transplant outcomes (eGFR, de novo DSA, BPAR, allograft loss); type: in vivo, human (kidney transplant recipients); conditions: for eGFR: mean ± SD; for Allograft Loss / BPAR: during the 12-week study period
Method: Patients were randomly assigned to either the P-CAB (tegoprazan 50 mg) group or the PPI (pantoprazole 20 mg) group. Enrolled KTRs were scheduled for four visits at baseline, 4, 8, and 12 weeks post-randomization. The dosage of immunosuppressants remained unchanged throughout the 12-week study period. Blood tests, including measurements of immunosuppressant trough levels, serum creatinine levels, estimated glomerular filtration rate (eGFR), and vital signs, were conducted at each visit. The collected data included patient demographics such as gender, age, height, weight, blood tacrolimus, mycophenolate concentrations, kidney function, liver function tests, allograft loss, and acute rejection episodes. We collected DSA information. DSA was identified using the Luminex single-antigen assay (LSA). […] The secondary outcome included evaluating transplant outcomes and GI symptoms using questionnaires. The transplant outcomes assessed were changes in eGFR, biopsy-proven acute rejection (BPAR), allograft loss, and de novo DSA during the study period. De novo DSA was defined as the new appearance of antibodies against mismatched donor human leukocyte antigen (HLA) not present at baseline.

[3] = Tacrolimus blood trough level (12 h post-dose, chemiluminescent immunoassay) in the randomized trial of tegoprazan vs pantoprazole; type: in vivo, human (kidney transplant recipients); conditions: for Tacrolimus trough level: mean ± SD
Text: (§1) This study was a prospective, open-label, randomized controlled trial conducted on KTRs receiving tacrolimus, mycophenolate, and steroids. This study was registered at the Clinical Research Information Service (CRIS), Republic of Korea (Registration No. KCT 0010481, registration date: 20 May 2025). Data analysis took place at Kyungpook National University Hospital, Republic of Korea, from August 2022 to May 2023. The trial adhered to the approval guidelines of the Institutional Review Board of Kyungpook National University Hospital (IRB No. 2022-02-013, approval date: 31 March 2022).
(§2) Patients were randomly assigned to either the P-CAB (tegoprazan 50 mg) group or the PPI (pantoprazole 20 mg) group. Enrolled KTRs were scheduled for four visits at baseline, 4, 8, and 12 weeks post-randomization. The dosage of immunosuppressants remained unchanged throughout the 12-week study period. Blood tests, including measurements of immunosuppressant trough levels, serum creatinine levels, estimated glomerular filtration rate (eGFR), and vital signs, were conducted at each visit.
(§3) The primary outcome was to compare changes in drug concentrations of tacrolimus and mycophenolate following the administration of tegoprazan in KTRs.
(§4) Trough levels of tacrolimus and mycophenolate were measured at 12 h post-dose, following standard clinical practice for therapeutic drug monitoring in transplant recipients. Blood samples were collected at scheduled morning visits, and the 12 h interval was confirmed using electronic pillbox adherence data or patient interviews. Tacrolimus concentrations were measured using the Dimension® TAC Flex® reagent cartridge (Siemens Healthcare Diagnostics Inc., Newark, NJ, USA) on the Siemens Dimension® Integrated Chemistry System, employing a homogeneous chemiluminescent immunoassay (CLIA) method. Mycophenolic acid concentrations were measured using the Dimension® MPA Flex® reagent cartridge (Siemens Healthcare Diagnostics Inc., Newark, USA) on the same system, based on a particle-enhanced turbidimetric inhibition immunoassay (PETINIA) method. All assays were conducted in the Department of Laboratory Medicine at the study hospital.

[4] = Mycophenolate (mycophenolic acid) trough level (12 h post-dose, PETINIA immunoassay) in the randomized trial of tegoprazan vs pantoprazole; type: in vivo, human (kidney transplant recipients); conditions: for Mycophenolate trough level: mean ± SD
Text: as §1, §2, §3, §4

Adverse event monitoring = type: in vivo, human (kidney transplant recipients); conditions: 12 weeks; for Overall incidence of AEs: p = 0.032 between groups
Method: Safety evaluations were conducted through comprehensive monitoring, including physical examinations, clinical laboratory tests, vital signs, and the documentation of adverse events (AEs). Participants were encouraged to voluntarily report AEs regularly throughout the study.

[5] = GI symptom questionnaires (GERD-HRQL, RDQ) via electronic diary app; type: in vivo, human (kidney transplant recipients); design: key to GERD-HRQL score: sum of 10 items each scored 0-5; higher = poorer quality of life; conditions: mean ± SD
Method: Changes in GI symptoms were measured and recorded using a self-developed electronic diary app installed on participants’ mobile phones. This app facilitated the assessment of GI symptoms through the Gastroesophageal Reflux Disease–Health-Related Quality of Life (GERD-HRQL) and Reflux Disease Questionnaire (RDQ). The GERD-HRQL scale comprises 10 items, addressing both GI symptoms and the patient’s overall condition. Each item is scored on a scale from 0 to 5, with higher scores indicating a poorer quality of life. The RDQ is a 6-item self-administered questionnaire designed to evaluate the severity and frequency of heartburn sensation, gastric acid regurgitation, and dyspepsia.
The secondary outcome included evaluating transplant outcomes and GI symptoms using questionnaires. The transplant outcomes assessed were changes in eGFR, biopsy-proven acute rejection (BPAR), allograft loss, and de novo DSA during the study period. De novo DSA was defined as the new appearance of antibodies against mismatched donor human leukocyte antigen (HLA) not present at baseline.

[6] = Time in therapeutic range (TTR) analysis of tacrolimus and mycophenolate; type: in vivo, human (kidney transplant recipients); conditions: across all visits; result in words
Method: Continuous variables were expressed as mean ± standard deviation, while categorical variables were presented as numbers and percentages. For normally distributed data, t-tests were utilized; for non-normally distributed data, the Mann–Whitney U test was applied. Intragroup variations between baseline and 12 weeks were analyzed using paired t-tests. Differences in the frequency of transplant outcomes were assessed using the χ^2 test or Fisher’s exact test. Differences in GI symptom questionnaire scores, assessed via e-diary surveys, were analyzed using t-tests or the Mann–Whitney U test, as appropriate. We conducted a TTR analysis for both tacrolimus and mycophenolate to evaluate the potential effects of tegoprazan on immunosuppressant stability. The predefined therapeutic range was set at […] for tacrolimus and at 1–3.5 µg/mL for mycophenolate. TTR was calculated as the proportion of time each drug level remained within the therapeutic window across the study period. All statistical analyses were performed using IBM SPSS Statistics 25 for Windows, […]. A p-value of <0.05 was considered statistically significant.

[7] = result in words, cited from earlier work
[8] = result in words, cited from earlier work; remark: listed apart in the source
[9] = 12-week follow-up in KTRs, result in words
[10] = Baseline, higher score = poorer quality of life
[11] = P-CAB group (tegoprazan 50 mg, n = 26), Baseline
[12] = P-CAB group (tegoprazan 50 mg, n = 26), Week 4
[13] = P-CAB group (tegoprazan 50 mg, n = 26), Week 8
[14] = P-CAB group (tegoprazan 50 mg, n = 26), Week 12
[15] = PPI group (pantoprazole 20 mg, n = 25), Baseline
[16] = PPI group (pantoprazole 20 mg, n = 25), Week 4
[17] = PPI group (pantoprazole 20 mg, n = 25), Week 8
[18] = PPI group (pantoprazole 20 mg, n = 25), Week 12

Compound: Cc1nc2cc(C(=O)N(C)C)cc(O[C@H]3CCOc4cc(F)cc(F)c43)c2[nH]1 [P-CAB, tegoprazan]
- Effect of food intake on pharmacokinetic and pharmacodynamic properties [1]: unaffected by food intake
- eGFR ([2]; Baseline): 62.8 ± 17.1 mL/min/1.73 m^2
- eGFR ([2]; Week 4): 61.8 ± 13.0 mL/min/1.73 m^2
- eGFR ([2]; Week 8): 60.6 ± 12.8 mL/min/1.73 m^2
- eGFR ([2]; Week 12): 63.5 ± 16.5 mL/min/1.73 m^2
- Allograft Loss [2]: 0 number
- BPAR [2]: 0 number
- Effect on blood trough level of tacrolimus [3, 9]: does not alter
- Effect on blood trough level of mycophenolate [4, 9]: does not alter
- AE: Abdominal discomfort (Adverse event monitoring): 3 (11.5) number (%)
- AE: Arthralgia (Adverse event monitoring): 1 (3.8) number (%)
- AE: Constipation (Adverse event monitoring): 2 (7.7) number (%)
- AE: Diarrhea (Adverse event monitoring): 5 (19.2) number (%)
- AE: Headache (Adverse event monitoring): 0 (0.0) number (%)
- AE: Hypertension (Adverse event monitoring): 4 (15.4) number (%)
- AE: Hypoglycemia (Adverse event monitoring): 1 (3.8) number (%)
- AE: Myalgia (Adverse event monitoring): 0 (0.0) number (%)
- AE: Nausea, vomiting (Adverse event monitoring): 3 (11.5) number (%)
- AE: Productive cough, sputum (Adverse event monitoring): 4 (15.4) number (%)
- AE: Pyrexia (Adverse event monitoring): 0 (0.0) number (%)
- AE: Toothache (Adverse event monitoring): 0 (0.0) number (%)
- AE: Upper respiratory tract infection (Adverse event monitoring): 2 (7.7) number (%)
- AE: Urinary tract infection (Adverse event monitoring): 0 (0.0) number (%)
- AE: Vertigo (Adverse event monitoring): 0 (0.0) number (%)
- Participants with AEs (Adverse event monitoring): 15 (57.7) number (%)
- Participants with SAEs (Adverse event monitoring): 2 (7.7) number (%)
- Withdrawal due to AEs (Adverse event monitoring): 0 (0.0) number (%)
- Cases of serious adverse events (SAEs) (Adverse event monitoring; none related to the study drug): two
- Overall incidence of AEs (Adverse event monitoring): 57.7%
- AE: COVID-19 (Adverse event monitoring; human, in vivo): 0 (0.0) number (%)
- RDQ score ([5]; Baseline): 4.7 ± 4.7
- GERD-HRQL score [5, 10]: 4.9 ± 4.3
- GERD-HRQL score ([5]; Week 4): 0.9 ± 1.4
- RDQ score ([5]; Week 4): 1.0 ± 2.1
- GERD-HRQL score ([5]; Week 8): 0.7 ± 1.0
- RDQ score ([5]; Week 8): 0.6 ± 1.2
- GERD-HRQL score ([5]; Week 12): 0.7 ± 1.6
- RDQ score ([5]; Week 12): 0.7 ± 1.9

Compound: C=CC[C@@H]1/C=C(\C)C[C@H](C)C[C@H](OC)[C@H]2O[C@@](O)(C(=O)C(=O)N3CCCC[C@H]3C(=O)O[C@H](/C(C)=C/[C@@H]3CC[C@@H](O)[C@H](OC)C3)[C@H](C)[C@@H](O)CC1=O)[C@H](C)C[C@@H]2OC [Tacrolimus, tacrolimus]
- Time in therapeutic range (TTR), P-CAB vs PPI group [6]: comparable between the two groups
- Tacrolimus trough level [3, 11]: 5.0 ± 1.6 ng/mL
- Tacrolimus trough level [3, 12]: 5.3 ± 1.3 ng/mL
- Tacrolimus trough level [3, 13]: 6.3 ± 1.9 ng/mL
- Tacrolimus trough level [3, 14]: 5.5 ± 1.6 ng/mL
- Tacrolimus trough level [3, 15]: 5.4 ± 1.4 ng/mL
- Tacrolimus trough level [3, 16]: 5.5 ± 1.6 ng/mL
- Tacrolimus trough level [3, 17]: 5.7 ± 2.4 ng/mL
- Tacrolimus trough level [3, 18]: 5.8 ± 2.0 ng/mL

Compound: COc1ccnc(C[S+]([O-])c2nc3ccc(OC(F)F)cc3[nH]2)c1OC (stereo not shown) [PPI, pantoprazole]
- Effect on trough levels of tacrolimus and cyclosporine ([7]; 12 solid organ transplant patients, five consecutive days of therapy): did not affect
- Effect on serum trough levels of tacrolimus ([7]; liver transplant recipients, co-administration over one year): does not influence
- eGFR ([2]; Baseline): 57.7 ± 14.9 mL/min/1.73 m^2
- eGFR ([2]; Week 4): 60.1 ± 14.8 mL/min/1.73 m^2
- eGFR ([2]; Week 8): 63.6 ± 14.1 mL/min/1.73 m^2
- eGFR ([2]; Week 12): 60.6 ± 14.7 mL/min/1.73 m^2
- Allograft Loss [2]: 0 number
- BPAR [2]: 0 number
- AE: Abdominal discomfort (Adverse event monitoring): 2 (8.0) number (%)
- AE: Arthralgia (Adverse event monitoring): 0 (0.0) number (%)
- AE: COVID-19 (Adverse event monitoring): 2 (8.0) number (%)
- AE: Constipation (Adverse event monitoring): 0 (0.0) number (%)
- AE: Diarrhea (Adverse event monitoring): 0 (0.0) number (%)
- AE: Headache (Adverse event monitoring): 1 (4.0) number (%)
- AE: Hypertension (Adverse event monitoring): 0 (0.0) number (%)
- AE: Hypoglycemia (Adverse event monitoring): 0 (0.0) number (%)
- AE: Myalgia (Adverse event monitoring): 1 (4.0) number (%)
- AE: Nausea, vomiting (Adverse event monitoring): 0 (0.0) number (%)
- AE: Productive cough, sputum (Adverse event monitoring): 0 (0.0) number (%)
- AE: Pyrexia (Adverse event monitoring): 1 (4.0) number (%)
- AE: Toothache (Adverse event monitoring): 1 (4.0) number (%)
- AE: Upper respiratory tract infection (Adverse event monitoring): 1 (4.0) number (%)
- AE: Urinary tract infection (Adverse event monitoring): 1 (4.0) number (%)
- AE: Vertigo (Adverse event monitoring): 1 (4.0) number (%)
- Participants with AEs (Adverse event monitoring): 7 (28.0) number (%)
- Participants with SAEs (Adverse event monitoring): 0 (0.0) number (%)
- Withdrawal due to AEs (Adverse event monitoring): 0 (0.0) number (%)
- Overall incidence of AEs (Adverse event monitoring): 28.0%
- RDQ score ([5]; Baseline): 3.2 ± 3.3
- GERD-HRQL score [5, 10]: 2.8 ± 2.3
- GERD-HRQL score ([5]; Week 4): 0.7 ± 1.2
- RDQ score ([5]; Week 4): 0.3 ± 0.9
- GERD-HRQL score ([5]; Week 8): 0.9 ± 1.8
- RDQ score ([5]; Week 8): 0.4 ± 1.0
- GERD-HRQL score ([5]; Week 12): 0.5 ± 1.1
- RDQ score ([5]; Week 12): 0.7 ± 2.0

Compound: COc1c(C)c2c(c(O)c1C/C=C(\C)CCC(=O)O)C(=O)OC2 [Mycophenolate, mycophenolate]
- Time in therapeutic range (TTR), P-CAB vs PPI group [6]: comparable between the two groups
- Mycophenolate trough level [4, 11]: 2.3 ± 1.4 µg/mL
- Mycophenolate trough level [4, 12]: 2.5 ± 1.1 µg/mL
- Mycophenolate trough level [4, 13]: 2.8 ± 1.8 µg/mL
- Mycophenolate trough level [4, 14]: 2.7 ± 1.4 µg/mL
- Mycophenolate trough level [4, 15]: 2.6 ± 1.3 µg/mL
- Mycophenolate trough level [4, 16]: 2.7 ± 1.1 µg/mL
- Mycophenolate trough level [4, 17]: 2.7 ± 2.4 µg/mL
- Mycophenolate trough level [4, 18]: 2.6 ± 1.4 µg/mL

Compound: CNCc1cc(-c2ccccc2F)n(S(=O)(=O)c2cccnc2)c1 [vonoprazan]
- Effect on tacrolimus concentration ([8]; KTRs, switching from rabeprazole to vonoprazan, two retrospective studies): increased
- Effect on tacrolimus trough levels ([8]; conversion from rabeprazole to vonoprazan, regardless of CYP3A5 genotypes): did not alter
